The values below come from patent US20220409629A1, “BENZODIAZEPINE DERIVATIVES FOR TREATING A RESPIRATORY SYNCYTIAL VIRUS (RSV) INFECTION” (priority 2019, published 2022).

For one series, the system named is RSV A2. The series can be described thus: RSV plaque reduction assay. Type of series: cell-based, respiratory syncytial virus (RSV). Particulars: Hep-G2 cells, RSV A2, mean of at least two experiments. In outline:
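RSV A2 (100 PFU/well) premixed with eight serial compound dilutions, added to confluent Hep-G2 monolayers for 2 h at 37° C, then held 2 days under CMC overlay containing compound (DMEM, 2% FBS). Plaques immunostained (HRP/TrueBlue) and counted; EC50 is 50% reduction versus virus control from 4-parameter fit, mean of ≥2 experiments.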

A further series concerns Hep-G2 cells. The series is described as follows: Cell cytotoxicity CC50. Format: cell-based. Particulars: mean of at least two experiments.
Series [1] can be described thus: Liver microsomal stability, human. Type of series: in vitro ADME. The settings on record: human liver microsomes, 0.5 mg/mL protein, 1 μM compound, NADPH, >80% remaining at 45 min denoted >140; for half-life: pH 7.4, read-out: Liver Microsomal Stability: t1/2 (min), human. In outline:
(§1)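 Pooled liver microsomes (0.5 mg/mL protein) in 0.1 M phosphate pH 7.4 with 1 μM compound (0.25% DMSO), started with 1 mM NADPH at 37° C; sampled 0-45 min, minus-NADPH control 45 min. LC-MS/MS depletion slope gave t1/2 and CLint.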
A general note: Liver microsomes are a subcellular fraction often used to study metabolism.

A short description of series [2]: Liver microsomal stability, rat. Format: in vitro ADME. The settings on record: rat liver microsomes, 0.5 mg/mL protein, 1 μM compound, NADPH, >80% remaining at 45 min denoted >140; for half-life: pH 7.4, read-out: Liver Microsomal Stability: t1/2 (min), rat. The essentials:
as §1

Series [3] in a line: Liver microsomal stability, dog. Format: in vitro ADME. Particulars: dog liver microsomes, 0.5 mg/mL protein, 1 μM compound, NADPH, >80% remaining at 45 min denoted >140; for half-life: pH 7.4, read-out: Liver Microsomal Stability: t1/2 (min), dog. The essentials:
as §1

Series [4] can be described thus: Liver hepatocyte stability, dog. Type of series: in vitro ADME. The settings on record: dog hepatocytes, 3 μM compound, 60 min, >80% remaining at 60 min denoted >186, read-out: Liver Hepatocyte Stability: t1/2 (min). On the procedure: (§2) Cryopreserved pooled hepatocytes were purchased from a reputable commercial supplier and stored in liquid nitrogen prior to use. Williams E media supplemented with 2 mM L-glutamine and 25 mM HEPES and test compound (final substrate concentration 3 μM; final DMSO concentration 0.25%) are pre-incubated at 37° C. prior to the addition of a suspension of cryopreserved hepatocytes (final cell density 0.5×10^6 viable cells/mL in Williams E media supplemented with 2 mM L-glutamine and 25 mM HEPES) to initiate the reaction. The final incubation volume is 500 μL. Two control compounds were included with each species, alongside appropriate vehicle control. The reactions are stopped by transferring 50 μL of incubate to 100 μL acetonitrile containing internal standard at the appropriate time points. Samples were removed at 6 time points (0, 5, 15, 30, 45 and 60 min) over the course of a 60 min experiment. The termination plates are centrifuged at 2500 rpm at 4° C. for 30 min to precipitate the protein. Following protein precipitation, the sample supernatants were combined in cassettes of up to 4 compounds and analysed using generic LC-MS/MS conditions. From a plot of ln peak area ratio (compound peak area/internal standard peak area) against time, the gradient of the line is determined. Subsequently, half-life (t1/2) and intrinsic clearance (CLint) were calculated.

A short description of series [5]: Liver hepatocyte stability, human. The settings on record: human hepatocytes, 3 μM compound, 60 min, >80% remaining at 60 min denoted >186, read-out: Liver Hepatocyte Stability: t1/2 (min). Format: in vitro ADME. The protocol:
as §2

The nature of series [6]: Liver hepatocyte stability, rat. Type of series: in vitro ADME. Particulars: rat hepatocytes, 3 μM compound, 60 min, >80% remaining at 60 min denoted >186, read-out: Liver Hepatocyte Stability: t1/2 (min). On the procedure: as §2
Another series can be described thus: Cell cytotoxicity CC50. Format: cell-based. The settings on record: human; mean of at least two experiments.
A short description of series [7]: Rat pharmacokinetics in vivo. The settings on record: male Sprague Dawley rats; for C 8 h / Cmax: doses 1 mg/kg (IV) and 10 mg/kg (PO); for Vd / clearance / bioavailability / half-life / AUC(0-t) / Cmax: rat, in vivo; for AUC(0-t): read-out: PO AUClast. The protocol:
The pharmacokinetics of compounds were studied in vivo in rats at doses of 1 mg/kg (IV) and 10 mg/kg (PO).
Male rats (Sprague Dawley) surgically prepared with a jugular vein cannula were treated with experimental compounds via intravenous administration (IV; n=3; 1 mg/kg) or oral administration (PO; n=3; 10 mg/kg). Compounds were formulated as a solution in 40:60 dimethylacetamide:saline (IV administration), a suspension in 1% methyl cellulose (viscosity: 15 cP), 0.1% Tween80 in water (PO administration: Example 3), a solution in 10% DMSO/10% Cremaphor/80% water (PO administration: Examples 4, 11, 21, 23, 25, 26, 32) or a solution in 10% DMSO/20% Cremaphor/70% water (PO administration: Examples 19, 20, 22, 24, 30). […] Serial blood samples were collected via the cannula at 0.02, 0.08, 0.25, 0.5, 1, 2, 4, 6, 8 and 24 h post IV dosing of compound, and at 0.08, 0.25, 0.5, 1, 2, 4, 6, 8 and 24 h post oral dosing of compound, and plasma was prepared by centrifugation and stored immediately at −80° C. Samples were subsequently thawed, prepared for analysis by protein precipitation with acetonitrile, and analysed by tandem LCMS using electrospray ionisation using a matrix-matched calibration curve. PK parameters were calculated from the resulting data.

A further series deals with RSV. Particulars: Antimicrobial Agents and Chemotherapy, September 2007, 3346-3353; cited from earlier work.
The mark [8] stands for this setting: human respiratory syncytial virus, HepG2.
Setting [9] is: IV 1 mg/kg, read-out: IV t½ (converted).
Where [10] appears, read: PO 10 mg/kg, read-out: PO t½ (converted).

In the case of “3-[6-(Cyclopropylamino)-2-fluoropyridin-3-yl]-1-(oxetan-3-yl)-N-[(3S)-2-oxo-5-phenyl-1,3-dihydro-1,4-benzodiazepin-3-yl]pyrazole-4-carboxamide [Example 37]”, a half-maximal effect in the series with RSV A2 (EC50) was put at 78 nM. Moreover, in the series on Hep-G2 cells, the CC50 (commonly the concentration giving 50% cytotoxicity) is more than 25000 nM.
For the compound “3-[6-(Cyclopropylamino)-2-fluoropyridin-3-yl]-N-[(3S)-9-fluoro-2-oxo-5-phenyl-1,3-dihydro-1,4-benzodiazepin-3-yl]-1-(oxetan-3-yl)pyrazole-4-carboxamide [Example 36]”, the “Liver Microsomal Stability: t1/2 (min); human” value in [1] is on record as 68.5 min. In addition, the “Liver Microsomal Stability: t1/2 (min); rat” value in series [2] came out at 93.2 min. The “Liver Microsomal Stability: t1/2 (min); dog” value in series [3] is on record as 191 min. Moreover, in the series on RSV A2, the EC50 – broadly, the concentration giving half of the maximal effect – is 45 nM. The CC50 in the series with Hep-G2 cells is more than 25000 nM.
As to `CCn1cc(C(=O)N[C@H]2N=C(c3ccccc3)c3cccc(F)c3NC2=O)c(-c2ccc(NC3CC3)nc2F)n1` [Example 26, 3-[6-(Cyclopropylamino)-2-fluoropyridin-3-yl]-1-ethyl-N-[(3S)-9-fluoro-2-oxo-5-phenyl-1,3-dihydro-1,4-benzodiazepin-3-yl]pyrazole-4-carboxamide], the half-life in series [4] was 160 min; in series [1] it was 84.9 min; in [2], 70.2 min; in series [3], 30.8 min; in series [5], more than 186 min; in series [6], more than 186 min. Moreover, the half-life in [7] (setting [9]) and in series [7] (setting [10]) was 2.6 h throughout. In the series on RSV A2 (setting [8]), this compound returned an EC50 of 36 nM. In addition, the CC50 in the series “Cell cytotoxicity CC50” is more than 25000 nM. In addition, in series [7], the “C 8 h” value is recorded as 919 ng/mL. Also, the Vd (usually the apparent volume that relates the amount in the body to the concentration in plasma or blood) in series [7] (IV 1 mg/kg) is 1.1 L/kg. Moreover, in [7] (IV 1 mg/kg), the clearance – broadly, the volume of plasma or blood freed of the substance per unit of time – amounted to 8.2 mL/min/kg. Moreover, the bioavailability (as a rule, dose-corrected exposure relative to a reference, in per cent) in series [7] (IV 1 mg/kg, PO 10 mg/kg) was 95.6%. In addition, the AUC(0-t) in series [7] (PO 10 mg/kg) was determined as 19400 ng·h/mL. Further, the Cmax (in general, the highest concentration seen after dosing) in series [7] was 2120 ng/mL.
Turning to `CC(C)(C)n1cc(C(=O)N[C@H]2N=C(c3ccccc3)c3cccc(F)c3NC2=O)c(-c2ccc(NC3CC3)nc2F)n1` [Example 30, 1-tert-Butyl-3-[6-(cyclopropylamino)-2-fluoropyridin-3-yl]-N-[(3S)-9-fluoro-2-oxo-5-phenyl-1,3-dihydro-1,4-benzodiazepin-3-yl]pyrazole-4-carboxamide], the half-life in series [4] was more than 186 min; in series [1], 253 min; in series [2], 53.1 min; in series [3], 63.7 min; in series [5] it was 71.3 min; in series [6], 98.5 min. In addition, the half-life was 1.8 h in series [7] (setting [9]) and 3 h in [7] (setting [10]). In addition, in the series on RSV A2 (setting [8]), the EC50 was 32 nM. This compound also came in with a CC50 in “Cell cytotoxicity CC50” of more than 25000 nM. Moreover, the “C 8 h” value in [7] is listed as 444 ng/mL. Moreover, the Vd in series [7] (IV 1 mg/kg) worked out at 1.4 L/kg. In addition, the clearance in series [7] (IV 1 mg/kg) was determined as 11.2 mL/min/kg. Moreover, the bioavailability in series [7] (IV 1 mg/kg, PO 10 mg/kg) was determined as 57%. Besides, the AUC(0-t) in series [7] (PO 10 mg/kg) was determined as 8540 ng·h/mL. In [7], this compound registered a Cmax of 918 ng/mL.
Consider `O=C(N[C@H]1N=C(c2ccccc2)c2cccc(F)c2NC1=O)c1cn(C2CCOCC2)nc1-c1ccc(NC2CC2)nc1F` [Example 32, 3-[6-(Cyclopropylamino)-2-fluoropyridin-3-yl]-N-[(3S)-9-fluoro-2-oxo-5-phenyl-2,3-dihydro-1H-1,4-benzodiazepin-3-yl]-1-(oxan-4-yl)-1H-pyrazole-4-carboxamide], for which the half-life in [4] is more than 186 min; in [1], 298 min; in series [2], 127 min; in series [3], 331 min; in series [5] it was more than 186 min; in series [6], 376 min. For the same compound, the half-life in [7] (setting [9]) is 1.2 h; in [7] (setting [10]) it was 5.2 h. In the series on RSV A2 (setting [8]), this compound gave an EC50 of 58 nM. Moreover, the half-maximal cytotoxic concentration (CC50) in “Cell cytotoxicity CC50” was more than 25000 nM. Moreover, the “C 8 h” value in series [7] was found to be 84 ng/mL. Also, the Vd in series [7] (IV 1 mg/kg) was 1.1 L/kg. In addition, in series [7] (IV 1 mg/kg), the clearance amounted to 17.7 mL/min/kg. Besides, the bioavailability in series [7] (IV 1 mg/kg, PO 10 mg/kg) stood at 19.3%. In addition, the AUC(0-t) in [7] (PO 10 mg/kg) was 1940 ng·h/mL. In [7], this compound displayed a Cmax of 452 ng/mL.
In the case of `O=C(Nc1ccccc1F)N[C@H]1N=C(c2ccccc2)c2ccccc2NC1=O` [RSV604], in the series on RSV, the anti-RSV activity result is reported as “sub-micromolar”.
